Assay results from article PMC6688997 (Nature Communications, 2019).

Columns and labels:
Experiment in all cases: Kinase assay, 1 mM ATP
Type in all cases: biochemical
FGFR2 = FGFR2 (Homo sapiens, UniProt P21802)
Method in brief: (§1)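 Kinase activity was measured with an off-chip mobility shift assay that separates substrate from phosphorylated product. IC50 values were estimated by fitting a four-parameter logistic model.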

EPHA6 = EPHA6 (Homo sapiens, UniProt Q9UF33)
Method in brief: as §1

CDK4/CycD3 = CDK4/CycD3 (Homo sapiens, UniProt P11802)
Method in brief: as §1

CDK7/CycH/MAT1 = CDK7/CycH/MAT1 (Homo sapiens, UniProt P50613)
Method in brief: as §1

MST1 = MST1 (Homo sapiens, UniProt Q13043)
Method in brief: as §1

EGFR(d746-750) = target: T1, EGFR(d746-750) (Homo sapiens, UniProt P00533, DEL746-750)
T1 construct: purchased Carna Biosciences
T1 sequence (P00533 with tags, fused parts or gaps DEL746-750 limits assumed): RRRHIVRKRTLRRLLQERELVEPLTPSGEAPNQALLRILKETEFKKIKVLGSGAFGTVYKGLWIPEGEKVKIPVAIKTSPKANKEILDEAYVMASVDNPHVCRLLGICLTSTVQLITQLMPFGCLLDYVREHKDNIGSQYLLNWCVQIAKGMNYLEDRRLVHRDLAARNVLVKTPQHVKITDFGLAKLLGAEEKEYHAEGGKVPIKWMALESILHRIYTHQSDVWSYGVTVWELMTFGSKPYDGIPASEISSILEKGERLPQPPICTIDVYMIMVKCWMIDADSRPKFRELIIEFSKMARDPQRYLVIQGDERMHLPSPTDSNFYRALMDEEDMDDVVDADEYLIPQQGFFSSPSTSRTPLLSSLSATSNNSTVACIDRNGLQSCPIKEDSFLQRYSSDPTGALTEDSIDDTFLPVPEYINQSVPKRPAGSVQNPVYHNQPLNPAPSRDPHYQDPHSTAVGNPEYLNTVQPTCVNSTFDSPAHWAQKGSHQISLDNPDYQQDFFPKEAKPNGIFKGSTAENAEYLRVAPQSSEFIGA
Method in brief: as §1

EPHA8 = target: T2, EPHA8 (Homo sapiens, UniProt P29322)
T2 construct: purchased Carna Biosciences
Method in brief: as §1

CaMK4 = CaMK4 (Homo sapiens, UniProt Q16566)
Method in brief: as §1

RSK1 = target: T3, RSK1 (Homo sapiens, UniProt Q15418)
T3 construct: purchased Carna Biosciences
Method in brief: as §1

IGF1R = target: T4, IGF1R (Homo sapiens, UniProt P08069)
T4 construct: purchased Carna Biosciences
Method in brief: as §1

CDK6/CycD3 = CDK6/CycD3 (Homo sapiens, UniProt Q00534)
Method in brief: as §1

BLK = BLK (Homo sapiens, UniProt P51451)
Method in brief: as §1

AurC = target: T5, AurC (Homo sapiens, UniProt Q9UQB9)
T5 construct: purchased Carna Biosciences
Method in brief: as §1

CK1α = CK1α (Homo sapiens, UniProt P48729)
Method in brief: as §1

RET(G691S) = target: T6, RET(G691S) (Homo sapiens, UniProt P07949, G691S)
T6 construct: purchased Carna Biosciences
Method in brief: as §1

FGR = FGR (Homo sapiens, UniProt P09769)
Method in brief: as §1

KDR = target: T7, KDR (Homo sapiens, UniProt P35968)
T7 construct: purchased Carna Biosciences
Method in brief: as §1

RET(S891A) = target: T8, RET(S891A) (Homo sapiens, UniProt P07949, S891A)
T8 construct: purchased Carna Biosciences
Method in brief: as §1

NEK1 = target: T9, NEK1 (Homo sapiens, UniProt Q96PY6)
T9 construct: purchased Carna Biosciences
Method in brief: as §1

Erk2 = Erk2 (Homo sapiens, UniProt P28482)
Method in brief: as §1

RET = target: T10, RET (Homo sapiens, UniProt P07949)
T10 construct: purchased Carna Biosciences
Method in brief: as §1

PKCε = target: T11, PKCε (Homo sapiens, UniProt Q02156)
T11 construct: purchased Carna Biosciences
Method in brief: as §1

NEK9 = target: T12, NEK9 (Homo sapiens, UniProt Q8TD19)
T12 construct: purchased Carna Biosciences
Method in brief: as §1

TIE2 = target: T13, TIE2 (Homo sapiens, UniProt Q02763)
T13 construct: purchased Carna Biosciences
T13 sequence (Q02763 23-1124): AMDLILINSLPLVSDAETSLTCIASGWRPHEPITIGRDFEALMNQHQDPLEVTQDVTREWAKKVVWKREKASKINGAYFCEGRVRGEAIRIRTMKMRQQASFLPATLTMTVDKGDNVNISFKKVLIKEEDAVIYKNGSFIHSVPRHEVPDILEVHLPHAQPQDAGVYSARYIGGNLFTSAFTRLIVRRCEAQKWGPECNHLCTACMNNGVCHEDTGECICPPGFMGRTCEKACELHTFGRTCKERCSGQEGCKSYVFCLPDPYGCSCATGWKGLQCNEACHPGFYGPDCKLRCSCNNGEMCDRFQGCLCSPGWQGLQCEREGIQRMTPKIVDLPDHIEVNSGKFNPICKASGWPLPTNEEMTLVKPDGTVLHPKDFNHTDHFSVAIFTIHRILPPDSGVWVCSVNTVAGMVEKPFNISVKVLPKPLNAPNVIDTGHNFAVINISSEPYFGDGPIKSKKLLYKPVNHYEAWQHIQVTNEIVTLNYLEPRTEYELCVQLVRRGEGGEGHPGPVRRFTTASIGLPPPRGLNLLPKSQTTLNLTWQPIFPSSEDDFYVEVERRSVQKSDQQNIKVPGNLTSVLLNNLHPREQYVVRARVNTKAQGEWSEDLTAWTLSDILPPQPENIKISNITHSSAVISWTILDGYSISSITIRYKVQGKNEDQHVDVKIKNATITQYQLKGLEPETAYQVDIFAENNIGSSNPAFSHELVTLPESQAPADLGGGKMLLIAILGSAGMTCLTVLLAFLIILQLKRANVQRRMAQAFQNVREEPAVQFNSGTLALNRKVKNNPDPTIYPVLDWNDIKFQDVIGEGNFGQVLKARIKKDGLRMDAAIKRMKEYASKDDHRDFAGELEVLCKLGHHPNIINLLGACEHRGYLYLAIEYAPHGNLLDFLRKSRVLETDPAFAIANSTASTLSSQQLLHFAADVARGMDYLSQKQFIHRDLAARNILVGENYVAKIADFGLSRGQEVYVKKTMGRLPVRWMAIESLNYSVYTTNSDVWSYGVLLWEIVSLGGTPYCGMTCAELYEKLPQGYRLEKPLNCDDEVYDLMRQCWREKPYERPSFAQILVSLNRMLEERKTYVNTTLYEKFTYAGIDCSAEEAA
Method in brief: as §1

FGFR4 = FGFR4 (Homo sapiens, UniProt P22455)
FGFR4, sequence (P22455 22-802): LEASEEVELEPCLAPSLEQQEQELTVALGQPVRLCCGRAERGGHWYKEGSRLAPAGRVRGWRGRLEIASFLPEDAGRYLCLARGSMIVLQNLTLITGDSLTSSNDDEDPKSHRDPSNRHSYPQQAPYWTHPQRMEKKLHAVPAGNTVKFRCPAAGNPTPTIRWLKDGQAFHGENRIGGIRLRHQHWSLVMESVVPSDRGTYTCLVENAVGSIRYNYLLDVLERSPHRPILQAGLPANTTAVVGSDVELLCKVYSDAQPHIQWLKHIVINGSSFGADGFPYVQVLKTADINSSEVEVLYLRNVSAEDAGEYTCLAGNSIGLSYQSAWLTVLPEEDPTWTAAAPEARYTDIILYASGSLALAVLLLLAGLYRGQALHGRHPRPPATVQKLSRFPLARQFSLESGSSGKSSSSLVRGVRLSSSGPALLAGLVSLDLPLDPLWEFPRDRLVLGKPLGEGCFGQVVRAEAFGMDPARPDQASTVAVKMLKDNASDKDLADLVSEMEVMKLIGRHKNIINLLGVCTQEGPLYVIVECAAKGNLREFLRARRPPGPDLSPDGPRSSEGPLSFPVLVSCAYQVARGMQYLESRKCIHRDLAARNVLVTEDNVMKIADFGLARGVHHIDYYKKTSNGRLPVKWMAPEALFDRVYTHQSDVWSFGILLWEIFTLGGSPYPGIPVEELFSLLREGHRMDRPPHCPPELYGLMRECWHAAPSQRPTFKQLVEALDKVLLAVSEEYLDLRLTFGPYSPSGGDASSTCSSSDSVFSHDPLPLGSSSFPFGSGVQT
Method in brief: as §1

EGFR(L858R) = target: T14, EGFR(L858R) (Homo sapiens, UniProt P00533, L858R)
T14 construct: purchased Carna Biosciences
T14 sequence (P00533 25-1210 L858R): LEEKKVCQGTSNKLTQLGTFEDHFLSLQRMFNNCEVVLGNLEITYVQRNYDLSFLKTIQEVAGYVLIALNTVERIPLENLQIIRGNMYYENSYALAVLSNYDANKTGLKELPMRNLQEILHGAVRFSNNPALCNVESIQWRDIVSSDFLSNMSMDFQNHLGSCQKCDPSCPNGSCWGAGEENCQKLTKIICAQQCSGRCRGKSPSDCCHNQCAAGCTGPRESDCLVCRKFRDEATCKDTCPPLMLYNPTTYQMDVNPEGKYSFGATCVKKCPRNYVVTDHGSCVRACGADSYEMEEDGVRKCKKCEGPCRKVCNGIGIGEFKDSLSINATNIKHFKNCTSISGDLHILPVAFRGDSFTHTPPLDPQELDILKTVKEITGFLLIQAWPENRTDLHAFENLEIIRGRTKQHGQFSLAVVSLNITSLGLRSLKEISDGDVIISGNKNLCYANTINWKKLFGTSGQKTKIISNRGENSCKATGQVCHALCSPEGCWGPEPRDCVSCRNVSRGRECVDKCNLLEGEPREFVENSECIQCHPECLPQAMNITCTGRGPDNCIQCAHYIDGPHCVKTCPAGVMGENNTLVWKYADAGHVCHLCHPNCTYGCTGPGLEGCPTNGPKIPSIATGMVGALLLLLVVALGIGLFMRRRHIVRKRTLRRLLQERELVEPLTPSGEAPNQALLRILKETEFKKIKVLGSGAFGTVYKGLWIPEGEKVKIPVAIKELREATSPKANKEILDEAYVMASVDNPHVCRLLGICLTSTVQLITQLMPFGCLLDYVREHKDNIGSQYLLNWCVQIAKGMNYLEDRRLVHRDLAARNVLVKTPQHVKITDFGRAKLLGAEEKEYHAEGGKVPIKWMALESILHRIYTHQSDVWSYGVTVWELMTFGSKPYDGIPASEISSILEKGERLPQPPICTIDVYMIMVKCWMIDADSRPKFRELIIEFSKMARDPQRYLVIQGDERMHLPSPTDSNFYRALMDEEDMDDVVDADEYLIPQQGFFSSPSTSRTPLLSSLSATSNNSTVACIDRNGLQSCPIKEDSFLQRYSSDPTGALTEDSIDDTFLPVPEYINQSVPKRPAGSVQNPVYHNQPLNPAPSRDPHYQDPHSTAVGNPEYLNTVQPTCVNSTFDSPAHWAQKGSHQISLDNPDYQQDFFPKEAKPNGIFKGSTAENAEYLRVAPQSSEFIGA
Method in brief: as §1

PKCα = PKCα (Homo sapiens, UniProt P17252)
Method in brief: as §1

p38γ = p38γ (Homo sapiens, UniProt P53778)
Method in brief: as §1

EPHA7 = EPHA7 (Homo sapiens, UniProt Q15375)
Method in brief: as §1

SIK = target: T15, SIK (Homo sapiens, UniProt P57059)
T15 construct: purchased Carna Biosciences
Method in brief: as §1

FER = target: T16, FER (Homo sapiens, UniProt P16591)
T16 construct: purchased Carna Biosciences
T16 sequence (P16591 whole entry): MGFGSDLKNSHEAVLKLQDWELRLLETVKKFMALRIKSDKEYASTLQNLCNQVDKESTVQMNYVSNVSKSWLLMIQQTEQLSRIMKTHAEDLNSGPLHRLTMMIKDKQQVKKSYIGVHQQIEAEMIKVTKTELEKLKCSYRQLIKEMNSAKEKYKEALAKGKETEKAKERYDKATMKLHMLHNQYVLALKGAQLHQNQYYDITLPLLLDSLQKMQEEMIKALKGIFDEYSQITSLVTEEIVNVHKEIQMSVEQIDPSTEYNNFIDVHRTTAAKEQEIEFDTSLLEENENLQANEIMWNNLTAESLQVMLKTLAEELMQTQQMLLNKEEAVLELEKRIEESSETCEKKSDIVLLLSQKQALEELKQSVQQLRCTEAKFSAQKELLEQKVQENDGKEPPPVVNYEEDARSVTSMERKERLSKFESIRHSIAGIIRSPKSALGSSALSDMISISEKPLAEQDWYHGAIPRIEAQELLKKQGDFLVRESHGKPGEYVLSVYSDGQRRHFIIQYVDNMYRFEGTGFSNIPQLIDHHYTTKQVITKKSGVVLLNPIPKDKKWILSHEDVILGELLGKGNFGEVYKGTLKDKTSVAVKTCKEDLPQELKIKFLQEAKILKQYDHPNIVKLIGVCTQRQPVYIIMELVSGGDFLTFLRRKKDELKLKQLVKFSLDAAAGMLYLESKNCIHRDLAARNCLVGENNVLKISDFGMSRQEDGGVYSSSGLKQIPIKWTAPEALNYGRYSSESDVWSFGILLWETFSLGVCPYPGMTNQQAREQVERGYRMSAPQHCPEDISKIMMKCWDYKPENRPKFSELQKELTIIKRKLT
Method in brief: as §1

Erk1 = Erk1 (Homo sapiens, UniProt P27361)
Erk1, sequence (P27361 whole entry): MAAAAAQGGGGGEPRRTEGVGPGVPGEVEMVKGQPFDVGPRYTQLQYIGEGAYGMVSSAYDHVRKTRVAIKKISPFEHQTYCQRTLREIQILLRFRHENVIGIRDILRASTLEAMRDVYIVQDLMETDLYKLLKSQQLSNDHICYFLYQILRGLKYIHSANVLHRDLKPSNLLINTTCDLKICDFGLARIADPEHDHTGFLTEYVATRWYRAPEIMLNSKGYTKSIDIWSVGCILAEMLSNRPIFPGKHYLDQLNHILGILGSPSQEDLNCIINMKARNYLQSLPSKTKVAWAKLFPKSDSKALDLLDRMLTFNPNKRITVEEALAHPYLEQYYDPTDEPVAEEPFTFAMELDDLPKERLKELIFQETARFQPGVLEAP
Method in brief: as §1

PKACα = PKACα (Homo sapiens, UniProt P17612)
Method in brief: as §1

ROCK1 = ROCK1 (Homo sapiens, UniProt Q13464)
Method in brief: as §1

PDGFRβ = target: T17, PDGFRβ (Homo sapiens, UniProt P09619)
T17 construct: purchased Carna Biosciences
Method in brief: as §1

PDGFRα = target: T18, PDGFRα (Homo sapiens, UniProt P16234)
T18 construct: purchased Carna Biosciences
Method in brief: as §1

JAK3 = target: T19, JAK3 (Homo sapiens, UniProt P52333)
T19 construct: purchased Carna Biosciences
Method in brief: as §1

YES = YES (Homo sapiens, UniProt P07947)
Method in brief: as §1

NEK6 = target: T20, NEK6 (Homo sapiens, UniProt Q9HC98)
T20 construct: purchased Carna Biosciences
Method in brief: as §1

DAPK1 = DAPK1 (Homo sapiens, UniProt P53355)
Method in brief: as §1

RET(M918T) = target: T21, RET(M918T) (Homo sapiens, UniProt P07949, M918T)
T21 construct: purchased Carna Biosciences
Method in brief: as §1

SRM = target: T22, SRM (Homo sapiens, UniProt Q9H3Y6)
T22 construct: purchased Carna Biosciences
Method in brief: as §1

Structure (SMILES): C[C@@H](N)COc1ccc(-c2cnc3ccc(N[C@H](C)c4cccc(F)c4)nn23)cc1.O=C(O)CCCCC(=O)O [DS-6051b]
- inhibition at 0.2 µM (FGFR2): 4.8%
- inhibition at 0.2 µM (EPHA6): -5.7%
- inhibition at 0.2 µM (CDK4/CycD3): -0.7%
- inhibition at 0.2 µM (CDK7/CycH/MAT1): -0.3%
- inhibition at 0.2 µM (MST1): 11.5%
- inhibition at 0.2 µM (EGFR(d746-750)): -3.4%
- inhibition at 0.2 µM (EPHA8): -9.1%
- inhibition at 0.2 µM (CaMK4): -3.3%
- inhibition at 0.2 µM (RSK1): 2.1%
- inhibition at 0.2 µM (IGF1R): 3.4%
- inhibition at 0.2 µM (CDK6/CycD3): 2.1%
- inhibition at 0.2 µM (BLK): 0.178%
- inhibition at 0.2 µM (AurC): -19%
- inhibition at 0.2 µM (CK1α): -1%
- inhibition at 0.2 µM (RET(G691S)): -0.256%
- inhibition at 0.2 µM (FGR): 6.3%
- inhibition at 0.2 µM (KDR): -5.4%
- inhibition at 0.2 µM (RET(S891A)): 2.5%
- inhibition at 0.2 µM (NEK1): -5.2%
- inhibition at 0.2 µM (Erk2): -3.8%
- inhibition at 0.2 µM (RET): 0.6%
- inhibition at 0.2 µM (PKCε): 18.8%
- inhibition at 0.2 µM (NEK9): -3.5%
- inhibition at 0.2 µM (TIE2): -2.2%
- inhibition at 0.2 µM (FGFR4): 3.7%
- inhibition at 0.2 µM (EGFR(L858R)): 0.7%
- inhibition at 0.2 µM (PKCα): 2%
- inhibition at 0.2 µM (p38γ): 0.224%
- inhibition at 0.2 µM (EPHA7): -4.9%
- inhibition at 0.2 µM (SIK): 8.9%
- inhibition at 0.2 µM (FER): 5.5%
- inhibition at 0.2 µM (Erk1): -4.9%
- inhibition at 0.2 µM (PKACα): -7%
- inhibition at 0.2 µM (ROCK1): -4.5%
- inhibition at 0.2 µM (PDGFRβ): 3.1%
- inhibition at 0.2 µM (PDGFRα): 5.7%
- inhibition at 0.2 µM (JAK3): 0.0922%
- inhibition at 0.2 µM (YES): 9%
- inhibition at 0.2 µM (NEK6): -0.6%
- inhibition at 0.2 µM (DAPK1): -0.6%
- inhibition at 0.2 µM (RET(M918T)): 0.9%
- inhibition at 0.2 µM (SRM): -3.1%
